Test results: publication PMC10790750, “A widespread methylotroph acyl-homoserine lactone synthase produces a new quorum sensing signal that regulates swarming in Methylobacterium fujisawaense” (mBio, 2023)
Like-named read-outs stand apart in the source and are kept apart here.

Experiments:
Type in all cases: cell-based
MmaR (MmaRDSM5686) = target: T1, MmaR (MmaRDSM5686) (Methylobacterium fujisawaense, UniProt A0ABR6DCX3); assay: mScarlet reporter activation in M. extorquens AWP370
T1 construct: gene GGQ91_003337; mmaR inserted in genome of Methylorubrum extorquens AWP227 (mlaR/mlaI deleted) under native mlaR promoter; reporter strain AWP370 with mmaI promoter-mScarlet
T1 sequence (A0ABR6DCX3 entry or part of it): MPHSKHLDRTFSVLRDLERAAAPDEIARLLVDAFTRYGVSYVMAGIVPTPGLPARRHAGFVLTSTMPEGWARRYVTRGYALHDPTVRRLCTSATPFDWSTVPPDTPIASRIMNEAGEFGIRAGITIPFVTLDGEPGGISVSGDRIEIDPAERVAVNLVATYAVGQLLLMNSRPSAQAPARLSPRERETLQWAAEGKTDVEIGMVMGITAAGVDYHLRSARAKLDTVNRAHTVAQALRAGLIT

MmaI (Ga0373204_3345) = target: T2, MmaI (Ga0373204_3345) (Methylobacterium fujisawaense, UniProt A0ABR6DCY1); assay: LC-MS/MS, NMR of culture extract; deletion mutant control; details: native strain grown on methanol
T2 construct: gene GGQ91_003338; native expression in DSM5686; deletion mutant as control
T2 sequence (A0ABR6DCY1 entry or part of it): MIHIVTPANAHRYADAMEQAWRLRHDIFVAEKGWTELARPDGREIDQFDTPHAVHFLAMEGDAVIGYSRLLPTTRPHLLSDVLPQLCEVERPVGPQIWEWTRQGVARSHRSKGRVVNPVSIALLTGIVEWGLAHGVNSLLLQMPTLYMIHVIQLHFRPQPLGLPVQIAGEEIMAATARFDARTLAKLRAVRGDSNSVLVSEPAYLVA

Mrad2831_5763 (MmaI) = target: T3, Mrad2831_5763 (MmaI) (Methylobacterium radiotolerans, UniProt B1M2Q9); assay: LC-MS/MS of culture extract after heterologous expression; details: product identified by m/z, retention time and fragmentation
T3 construct: heterologously expressed
T3 sequence (B1M2Q9 1-207): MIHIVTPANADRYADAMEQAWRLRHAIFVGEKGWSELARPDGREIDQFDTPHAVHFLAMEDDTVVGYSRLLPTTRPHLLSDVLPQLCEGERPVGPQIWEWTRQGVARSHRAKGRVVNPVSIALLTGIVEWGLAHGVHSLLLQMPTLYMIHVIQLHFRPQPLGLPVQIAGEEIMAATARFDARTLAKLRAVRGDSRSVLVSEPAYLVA

EC50 (MmaR (MmaRDSM5686)) | EC50 (MmaR (MmaRDSM5686); purified natural signal added, mmaI promoter-mScarlet reporter, agonist) | SMILES | LC-MS/MS, NMR of culture extract; deletion mutant control (MmaI (Ga0373204_3345)) | LC-MS/MS of culture extract after heterologous expression (Mrad2831_5763 (MmaI))
1.7 nM |  | CCCCCCCCCC(O)CC(=O)N[C@H]1CCOC1=O (stereo partly shown) [3-OH-C12-HSL] |  | 
 | 0.2 nM | CCCCCC/C=C\C[C@@H](O)CC(=O)NC1CCOC1=O (stereo partly drawn) [3R-OH-5Z-C12:1-HSL, N-(3R-hydroxy-5-cis-dodecenoyl)-L-homoserine lactone] | this feature was not present in a culture of an in-frame, unmarked deletion mutant | we observed a feature with the same m/z, retention time, and fragmentation pattern
